The results in this text go back to patent US20210395327A1, “Growth Hormone-Releasing Hormone Antagonists and Uses Thereof” (United States Government As Represented By The Department …, priority 2019, published 2021).

Non-standard residues stand in square brackets, D forms with d. Residues, ends and D or L forms follow the SMILES beside them. *: point of attachment. Phenylacetyl(2,3,4,5,6-F5) = O=C(Cc1c(F)c(F)c(F)c(F)c1F)*; Phe(F5) = N[C@@H](Cc1c(F)c(F)c(F)c(F)c1F)C(=O)O; Phe(4-Cl) = N[C@@H](Cc1ccc(Cl)cc1)C(=O)O; hArg = N=C(N)NCCCC[C@H](N)C(=O)O; 12Ado = NCCCCCCCCCCCC(=O)O; Nle = CCCC[C@H](N)C(=O)O; Orn = NCCC[C@H](N)C(=O)O; Abu = CC[C@H](N)C(=O)O; PhAc = O=C(Cc1ccccc1)*

Assay [1] has as its system NCI-N87 stomach cancer cells. Put plainly: In vitro cell viability (CellTiter 96), N87. The following applies: for In vitro relative inhibitory potency in comparison to MIA-602, NCI-N87: Table 3B, 5 μM for 72 H, MIA-602 = 1. The class given is cell-based, human. The method in brief:
(§1)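 Viability by CellTiter 96 aqueous one solution (MTS) after 72 h exposure to antagonist at 5 μM (some at 2 μM), following 24 h starvation in 0.5% FBS. Results given as percentage inhibition relative to MIA602.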

The test system of assay [2] is HCC827 lung cancer cells. Put plainly: In vitro cell viability, HCC827. It counts as cell-based, human. To be noted: for In vitro relative inhibitory potency in comparison to MIA-602, HCC827: Table 3B, 5 μM for 72 H, MIA-602 = 1. Summed up: as §1
For assay [3], the system named is HT-29 colon cancer cells. Put plainly: In vitro cell viability, HT-29. To be noted: Table 3B; 5 μM for 72 H; MIA-602 = 1. The class given is cell-based, human. How it is done: The inhibitory effects of the various synthesized GHRH antagonists were tested in cell proliferation assays in various human cancer cell lines including stomach cancer (KATOIII, N87), colon cancer (HT-29), urothelial cancer (J82, RT4), pancreatic cancer (PANC-1, CFPAC-1), prostatic cancer (PC3), breast cancer (MX-1, HCC1806), ovarian cancer (SK-OV-3, OVCAR-3) and lung cancer (HCC827, H460).
Cell culture. Human cancer cell lines including pancreatic (PANC-1 and CFPAC-1), lung (HCC827 and H460), stomach (NCI-N87 and KATOIII), urothelial (J82, RT4), prostatic (PC3), breast (MX-1 and HCC 1806), colorectal (HT-29), and ovarian (SK-OV-3 and OVCAR-3) were obtained from the American Type Culture Collection (ATCC) and cultured at 37° C. in a humidified 95% air/5% CO2 atmosphere in the medium recommended by ATCC.
In vitro cell viability. Cell viability was analyzed as follows: cancer cells including pancreatic (PANC-1 and CFPAC-1), lung (HCC827 and H460), stomach (NCI-N87 and KATOIII), urothelial (J82, RT4), prostatic (PC3) and breast (MX-1 and HCC 1806), colorectal (HT-29) and ovarian (SK-OV-3 and OVCAR-3) were grown on 96 well plates to ˜60% confluence, the cells were starved for 24 h in culture medium containing 0.5% FBS. Cells were then treated with GHRH antagonists MIA602 AVR compounds at concentrations of 1, 2.5 or 5 μM, or vehicle (0.1% DMSO) in quintuplicates for 72 hours. The medium was replaced every 48 hours. Cell viability was measured using CellTiter 96 aqueous one solution kit (Promega). Inhibitory effects of tested AVR compounds in comparison to that of MIA602 are presented as inhibitory potency.
Inhibitory effects of selected AVR compounds in comparison to that of MIA602 are presented as inhibitory potency (e.g., percentage of inhibition). […] The cell lines tested including lung cancer HCC827 (FIG. 2A), pancreatic cancer CFPAC-1 (FIG. 2B), stomach cancer N87 (FIG. 2C), colon cancer HT-29 (FIG. 2D), breast cancers MX-1 and HCC1806 (FIGS. 2 E, F). Based on the results of cell proliferation assay after cancer cells were treated with antagonist at concentration of 5 μM for 72H, the relative inhibitory potency of AVR antagonists in comparison to MIA-602 is summarized in Table 3 A and B. Over 60 AVR compounds were tested in 12 cancer cell lines.
Based on the results of cell proliferation assay after cancer cells were treated with antagonist at concentration of 5 µM for 72H, * at concentration of 2 µM for 72 H.

For assay [4], the system named is stomach cancer N87 xenograft. Put plainly: Xenograft tumor growth in nude mice, N87. The class given is in vivo. To be noted: for % Inhibition: vs control. How it is done:
The peptides' activity was compared with GHRH antagonist MIA-602. All statistical analyzses were performed from comparing GHRA antagonists to non-treated tumor (control).
Peptides and chemicals. GHRH antagonists MIA-602 and AVR-GHRH antagonists (see Table 2 above) were synthesized by solid phase methods and purified by HPLC. The peptides were dissolved in DMSO and further diluted in 10% 1,2-propanediol. The final concentration of peptides was 50 µg/ml in 10% 1,2-propanediol containing 0.1% of DMSO.
Cell culture. Human cancer cell lines including pancreatic (PANC-1 and CFPAC-1), lung (HCC827 and H460), stomach (NCI-N87), prostate (PC3), brest (MX-1 and HCC-1806), colorectal (HT-29), and ovarian (SK-OV-3 and OVCAR-3) were obtained from the American Type Culture Collection (ATCC) and cultured at 37° C. in a humidified 95% air/5% CO2 atmosphere in the medium recommended by ATCC.
Xenograft models of human cancers in nude mice. Female athymic (NCr nu/nu) nude mice, 5- to 6-weeks-old, obtained from the Envigo labs (Tampa, Fla.), were housed in laminar airflow cabinets under pathogen-free conditions with a 12-h light/12-h dark schedule, and were fed autoclaved standard chow and water. To generate mice with xenografted tumors, tumor xenografts were initiated by subcutaneous (s.c.) injection of 107 human cancer cells into female nude mice. After about 4 weeks the resulting tumors were dissected and collected after removing necrosis tissues. The tumors were then cut into particles with size of 3 mm3 and transplanted s.c. by trocar needle into experimental animals. When tumors grew to the size of 50-60 mm3 (by volume), […] of 5 μg of GHRH antagonists MIA-602 or AVR-compounds (2-10 μg as indicated), or vehicle solutions (0.1% DMSO in 10% 1,2-propanediol) respectively. Tumor sizes were measured weekly.
Statistical analysis. One-way ANOVA followed by Bonferroni comparison were performed. Data are expressed as Mean±SEM. To determine statistical significance between animal groups, two-tailed Student's t-test was conducted. Differences were considered significant when p<0.05.
Results. […] FIG. 1A-N represents in vivo inhibition of tumor growth during the treatment with GHRH antagonist MIA-602 and selected AVR antagonists in nude mice xenografted with various human tumors including pancreatic cancer PANC-1 (FIG. 1A) and CFPAC-1 (FIG. 1I); lung cancer HCC827 (FIGS. 1B, C) and H460 (FIG. 1H); stomach cancer N87 (FIGS. 1D-F); colon cancer HT-29 (FIG. 1G); breast cancer MX-1 and HCC-1806 (FIGS. 1J, K); ovarian cancer SK-OV-3 and OVACAR-3 (FIGS. 1 L, M) and prostate cancer PC3 (FIG. 1N). See also Table 5.

[5] abbreviates: Table 4F, Stomach Ca N87, 4 weeks, 2 μg/day s.c.
Where [6] appears, read: Table 4F, Stomach Ca N87, 4 weeks, 5 μg/day s.c.
[7] abbreviates: antagonist 5 μM for 72 h, cell proliferation assay, MIA602 = 1.
[8] abbreviates: Table 4D, Stomach Ca N87, 10 weeks, 2 μg/day s.c.
Setting [9] is: Table 4D, Stomach Ca N87, 10 weeks, 5 μg/day s.c.
[10] abbreviates: Table 4E, Stomach Ca N87, 4 weeks, 5 μg/day s.c.

As a reminder, the % Inhibition is the change of the read-out against control, counted positive when it falls. Consider `CCCC[C@H](NC(=O)[C@@H](NC(=O)[C@H](CC(=O)O)NC(=O)[C@H](CCC(N)=O)NC(=O)[C@H](CC(C)C)NC(=O)[C@H](CC(C)C)NC(=O)[C@H](CCCCN)NC(=O)[C@H](CCCNC(=N)N)NC(=O)[C@H](C)NC(=O)[C@H](CO)NC(=O)[C@H](CC(C)C)NC(=O)[C@H](CCC(N)=O)NC(=O)[C@H](CC)NC(=O)[C@H](CC(C)C)NC(=O)[C@@H](NC(=O)[C@H](CCCCN)NC(=O)[C@H](CCCNC(=N)N)NC(=O)[C@H](Cc1c(F)c(F)c(F)c(F)c1F)NC(=O)[C@H](CCCCNC(=N)N)NC(=O)[C@H](C)NC(=O)[C@@H](NC(=O)[C@H](Cc1ccc(Cl)cc1)NC(=O)[C@@H](NC(=O)[C@H](C)NC(=O)[C@H](CC(=O)O)NC(=O)[C@@H](CCCNC(=N)N)NC(=O)[C@H](Cc1ccc(O)cc1)NC(=O)CCCCCCCCCCCNC(=O)Cc1c(F)c(F)c(F)c(F)c1F)[C@@H](C)CC)[C@@H](C)O)C(C)C)[C@@H](C)CC)C(=O)N[C@H](CCCNC(=N)N)C(=O)N[C@@H](CCCCNC(=N)N)C(=O)NCCCCCCCCCCCC(N)=O` [AVR-353, 5FPhAC-Ada-Tyr-DArg-Asp-Ala-Ile-Cpa-Thr-Ala-Har-5FPhe-Arg-Lys-Val-Leu-Abu-Gln-Leu-Ser-Ala-Arg-Lys-Leu-Leu-Gln-Asp-Ile-Nle-DArg-Har-Ada-NH2] ({Phenylacetyl(2,3,4,5,6-F5)-12Ado}-Y[dR]DAI[Phe(4-Cl)]TA[hArg][Phe(F5)]RKVL[Abu]QLSARKLLQDI[Nle][dR][hArg][12Ado]-NH2), for which, in assay [1], the “In vitro relative inhibitory potency in comparison to MIA-602, NCI-N87” value worked out at 3.404. Further, in assay [2], the “In vitro relative inhibitory potency in comparison to MIA-602, HCC827” value worked out at 1.641. Besides, the “In vitro relative inhibitory potency in comparison to MIA-602, HT-29” value in assay [3] is given as 1.222. In assay [4] (setting [5]), the “Tumor Growth %” value stood at 433.70% and the “% Inhibition” value was determined as 51.4%. Besides, in assay [4] (setting [6]), the “Tumor Growth %” value is given as 312.20% and the “% Inhibition” value was found to be 65.0%.
In the case of `CCCC[C@H](NC(=O)[C@@H](NC(=O)[C@H](CC(=O)O)NC(=O)[C@H](CCC(N)=O)NC(=O)[C@H](CC(C)C)NC(=O)[C@H](CC(C)C)NC(=O)[C@H](CCCN)NC(=O)[C@H](Cc1c[nH]cn1)NC(=O)[C@H](C)NC(=O)[C@H](CO)NC(=O)[C@H](CC(C)C)NC(=O)[C@H](CCC(N)=O)NC(=O)[C@H](CC)NC(=O)[C@H](CC(C)C)NC(=O)[C@@H](NC(=O)[C@H](CCCN)NC(=O)[C@H](Cc1c[nH]cn1)NC(=O)[C@H](Cc1ccc(OC)cc1)NC(=O)[C@H](CCCCNC(=N)N)NC(=O)[C@H](C)NC(=O)[C@@H](NC(=O)[C@H](Cc1c(F)c(F)c(F)c(F)c1F)NC(=O)[C@@H](NC(=O)[C@H](C)NC(=O)[C@H](CC(=O)O)NC(=O)[C@@H](CCCNC(=N)N)NC(=O)[C@H](Cc1ccc(O)cc1)NC(=O)CCCCCCCCCCCNC(=O)Cc1ccccc1)[C@@H](C)CC)[C@@H](C)O)C(C)C)[C@@H](C)CC)C(=O)N[C@H](CCCNC(=N)N)C(=O)N[C@@H](CCCCNC(=N)N)C(N)=O` [MIA-602, PhAC-Ada, Tyr D-Arg, Asp, Ala, Ile, 5FPhe, Thr, Ala, Har, Tyr(Me), His, Orn, Val, Leu, Abu, Gin, Leu, Ser, Ala, His, Om, Leu, Leu, Gin, Asp, Ile; Nle, D-Arg, Har NH2, reference compound] ({PhAc-12Ado}-Y[dR]DAI[Phe(F5)]TA[hArg]Y(Me)H[Orn]VL[Abu]QLSAH[Orn]LLQDI[Nle][dR][hArg]-NH2), in assay [1], the “In vitro relative inhibitory potency in comparison to MIA-602, NCI-N87” value is given as 1. Moreover, the “relative inhibitory potency in comparison to MIA-602, Stomach N87” value in assay [1] (setting [7]) is listed as 1. Moreover, the “In vitro relative inhibitory potency in comparison to MIA-602, HCC827” value in assay [2] amounted to 1. For the same molecule, the “relative inhibitory potency in comparison to MIA-602, Lung IICC827” value in assay [2] (setting [7]) turned out to be 1. Besides, the “In vitro relative inhibitory potency in comparison to MIA-602, HT-29” value in assay [3] came out at 1. Besides, the figures for the “Tumor Size (mm^3)” value in assay [4] (setting [8]) and in assay [4] (setting [9]) were 1065.00 mm^3 and 767.00 mm^3, respectively. Further, the “% Inhibition” value in assay [4] (setting [8]) is recorded as 13.0%; in assay [4] (setting [9]), 37.3%; in assay [4] (setting [10]) it was 52.1%; in assay [4] (setting [6]), 52.1%. Further, the “Tumor Growth %” value in assay [4] (setting [10]) and in assay [4] (setting [6]) was 427.20% each time.
